Tested on: male and female Sprague–Dawley rats
Test: 90-day subchronic oral gavage toxicity study
Format: in vivo, rat
Conditions: female
Protocol: Subchronic (90-day) studies were performed in accordance with current U.S. EPA’s Toxic Substances Control Act Good Laboratory Practice (GLP) Standards, with the following two general exceptions to the GLP guidelines: Analysis of the dose formulations was conducted according to RTI-approved Standard Operating Procedures, and corn oil (the vehicle) was not characterized (certificate of analysis from the vendor is available in the appendices to the final reports). Male and female Sprague–Dawley rats (five dose levels plus a control, n = 10/sex/dose group, corn oil vehicle dose volume of 3 mL/kg; oral gavage) were used in these studies, and the rats were euthanized on SD 91. The dose levels for PFHI were 0, 12.5, 25, 50, 100, and 200 mg/kg-day. The dose levels for MHFPK were 0, 18.8, 37.5, 75, 150, and 300 mg/kg-day. The dose levels for PFNAC were 0, 0.1, 0.3, 1.0, 3.0, and 10 mg/kg-day for male rats and 0, 0.3, 1.0, 3.0, 10, and 30 mg/kg-day for female rats. For CTFPA, the dose levels were 0, 1.9, 3.8. 7.5, 15, and 30 mg/kg-day for male rats and 0, 6.3, 12.5, 25, 50, and 100 mg/kg-day for female rats. For each PFAS, three batches of dosing solution were prepared. The time between the batch preparation of the dosing solutions ranged between 29 and 39 days. Blood samples were collected from all the rats at termination for serum chemistry, hematology, coagulation, and the analysis of the parent PFAS chemical in the plasma. In vivo data collection and further detail on the endpoints examined postmortem are described below.
The rats were observed twice daily for morbidity and mortality throughout the study period. At least once prior to randomization to test groups and weekly thereafter, the rats were physically examined, and bodyweights were obtained. Feed consumption was quantified weekly starting on SD 1.
Neurotoxicity was evaluated using the functional observational battery (FOB) and measuring locomotor activity (LMA) 2–4 h post dosing on SDs 78–80 and 80–84, respectively. For both the 14- and 90-day studies, an ophthalmologic examination was conducted prior to randomization and near the end of the study, using indirect ophthalmoscopy and slit–lamp biomicroscopy (as needed) after the administration of a mydriatic solution.
Hematology, biochemistry, and coagulation endpoints were measured at the termination of the study. A Siemens Advia 2120i hematology analyzer (Siemens Healthineers, Erlangen, Germany) was used to measure (or calculate) the parameters related to the complete blood count, leukocyte differential count, and reticulocyte count. The hematology parameters are listed and described in Table 2. The prothrombin time […] and activated partial thromboplastin time (APTT) were measured using an Instrumentation Laboratory (Bedford, MA, USA) ACL Elite Pro coagulation analyzer (laser–nephelometric centrifugal method).
At necropsy, the rats were visually examined for external abnormalities and organ weights (absolute and relative to the BW and brain weight), which were recorded (paired organs weighed together). The tissues were preserved in 10% neutral buffered formalin (NBF), except for the ocular tissues, testes, and epididymides, which were preserved in modified Davidson’s fixative and later transferred to 10% NBF. Bone marrow smears were prepared from the femurs, and the slides were air-dried, fixed in methanol, stained, and stored at room temperature for possible future evaluation. The preserved tissues were embedded in paraffin, sectioned, stained with hematoxylin and eosin, and examined by a board-certified veterinary pathologist.
Statistical analysis was performed using Provantis™ Version 10 or greater (Instem LSS, Limited; Stone, Staffordshire, UK). Differences among the treatment groups compared to the control were evaluated using one-way analysis of variance (ANOVA) if the underlying assumptions of a normal distribution (Shapiro–Wilk test) and the homogeneity of the variance (Levene’s test) were satisfied. […]

With `FC(F)(F)C(F)(F)C(F)(F)C(F)(F)CCI` [PFHI, 1H,1H,2H,2H-Perfluorohexyl iodide] the “Total BW change” value (25 mg/kg-day) was 125.38 g, the “Total Food Consumed” value (25 mg/kg-day) was 1579 g and the “% BW Gain” value (50 mg/kg-day) was 65.42%. For the same compound, the “% Diff, % BW Gain” value (50 mg/kg-day) was 8.07%, the “% Diff, Total BW change” value (50 mg/kg-day) was 7.25% and the “% Diff, Total Food Consumed” value (50 mg/kg-day) was 8.31%. It also gave an A/G (50 mg/kg-day) of 1.09±0.09 ratio, an ALB (50 mg/kg-day) of 4.27 ± 0.46 g/dL and an ALPi (50 mg/kg-day) of 43.7±5.5 U/L. The APTT (50 mg/kg-day) was 20.46 s, the BUN (50 mg/kg-day) was 15.7 ± 2.2 mg/dL and the CHOL (50 mg/kg-day) was 119.7 ± 25.4 mg/dL. It also gave a GLOB (50 mg/kg-day) of 3.91 ± 0.26 g/dL, a GLUC (50 mg/kg-day) of 157.1 ± 16.7 mg/dL and an HCT (50 mg/kg-day) of 47.80±2.45%. The HGB (50 mg/kg-day) was 15.23 ± 0.72 g/dL, the “Kidney Weight” value (50 mg/kg-day) was 1.85 g and the “Kidney/Body Weight” value (50 mg/kg-day) was 0.57%. For the same compound, the “Kidney/Brain Weight” value (50 mg/kg-day) was 93.9%, the “Liver Weight” value (50 mg/kg-day) was 8.92 g and the “Liver/Body Weight” value (50 mg/kg-day) was 2.76%. The “Liver/Brain Weight” value (50 mg/kg-day) was 454%, the MPV (50 mg/kg-day) was 7.47 ± 0.44 fL and the PT (50 mg/kg-day) was 13.48 s. The “Total BW change” value (50 mg/kg-day) was 132.23 g, the “Total Food Consumed” value (50 mg/kg-day) was 1595 g and the “% BW Gain” value (100 mg/kg-day) was 62.41%. For the same compound, the “% Diff, % BW Gain” value (100 mg/kg-day) was 3.09%, the “% Diff, Total BW change” value (100 mg/kg-day) was 5.03% and the “% Diff, Total Food Consumed” value (100 mg/kg-day) was 13.5%. For the same compound, the A/G (100 mg/kg-day) was 1.08±0.06 ratio, the ALB (100 mg/kg-day) was 4.32 ± 0.36 g/dL and the ALPi (100 mg/kg-day) was 49.7±18.4 U/L. For the same compound, the APTT (100 mg/kg-day) was 17.57 s, the BUN (100 mg/kg-day) was 16.7 ± 2.6 mg/dL and the CHOL (100 mg/kg-day) was 122.7 ± 15.6 mg/dL. The GLOB (100 mg/kg-day) was 4.00 ± 0.27 g/dL, the GLUC (100 mg/kg-day) was 153.8 ± 19.2 mg/dL and the HCT (100 mg/kg-day) was 46.45±1.01%. The HGB (100 mg/kg-day) was 14.77 ± 0.32 g/dL, the “Kidney Weight” value (100 mg/kg-day) was 1.84 g and the “Kidney/Body Weight” value (100 mg/kg-day) was 0.58%. For the same compound, the “Kidney/Brain Weight” value (100 mg/kg-day) was 89.7%, the “Liver Weight” value (100 mg/kg-day) was 9.17 g and the “Liver/Body Weight” value (100 mg/kg-day) was 2.85%. For the same compound, the “Liver/Brain Weight” value (100 mg/kg-day) was 447%, the MPV (100 mg/kg-day) was 7.34 ± 0.51 fL and the PT (100 mg/kg-day) was 13.79 s. For the same compound, the “Total BW change” value (100 mg/kg-day) was 129.49 g, the “Total Food Consumed” value (100 mg/kg-day) was 1671 g and the “% BW Gain” value (200 mg/kg-day) was 53.53%. For the same compound, the “% Diff, % BW Gain” value (200 mg/kg-day) was -11.58%, the “% Diff, Total BW change” value (200 mg/kg-day) was -11.94% and the “% Diff, Total Food Consumed” value (200 mg/kg-day) was 6.33%. It also gave an A/G (200 mg/kg-day) of 1.15±0.03 ratio, an ALB (200 mg/kg-day) of 4.69 ± 0.33 g/dL and an ALPi (200 mg/kg-day) of 46.9±15.3 U/L. It also gave an APTT (200 mg/kg-day) of 19.34 s, a BUN (200 mg/kg-day) of 18.0 ± 3.3 mg/dL and a CHOL (200 mg/kg-day) of 154.8 ± 35.9 mg/dL. It also gave a GLOB (200 mg/kg-day) of 4.10 ± 0.33 g/dL, a GLUC (200 mg/kg-day) of 155.2 ± 21.4 mg/dL and an HGB (200 mg/kg-day) of 14.58 ± 0.80 g/dL. The “Kidney Weight” value (200 mg/kg-day) was 1.83 g, the “Kidney/Body Weight” value (200 mg/kg-day) was 0.61% and the “Kidney/Brain Weight” value (200 mg/kg-day) was 91.3%. The “Liver Weight” value (200 mg/kg-day) was 9.65 g and the “Liver/Body Weight” value (200 mg/kg-day) was 3.20%.

From PMC12298827, “Subchronic Toxicities of Four Per- and Polyfluoroalkyl Substances (PFASs) by Oral Exposure in Sprague–Dawley Rats” (Toxics, 2025)
